According to ChEMBL document CHEMBL1126344, “Substituted penta- and hexapeptides as potent inhibitors of herpes simplex virus type 2 ribonucleotide reductase” (Bioorg Med Chem Lett, 1992):
Starred links: 1 amine or outer side, 2 acyl side, 3 side chain; linkers in the order of their positions; H or OH if unused. Non-standard residues stand in square brackets, D forms with d. Residues, ends and D or L forms follow the SMILES beside them. *: point of attachment. X1 = O=C([C@H](Cc1ccc(O)cc1)N(Cc1cccc(Oc2ccccc2)c1)[*:1])[*:2]; Dibenzylacetyl = O=C(C(Cc1ccccc1)Cc1ccccc1)*; NBnTyr = O=C(O)[C@H](Cc1ccc(O)cc1)NCc1ccccc1; tBuAla = CC(C)(C)C[C@H](N)C(=O)O; αMeL = CC(C)C[C@](C)(N)C(=O)O; Pyrrolidide = C1CCN(*)C1; NHBn = c1ccc(CN*)cc1

Columns and labels:
[1] = Inhibitory activity of YAGAVVNDL against Herpes Simplex Virus type 2 (HSV-2) ribonucleotide reductase determined as control; design: species or system Human alphaherpesvirus 2
Human alphaherpesvirus 2 = test: Relative potency to that of YAGAVVNDL against Herpes Simplex Virus type 2 ribonucleotide reductase
[2] = biological target: Ribonucleotide reductase (Herpes simplex virus type 2); test: Compound was tested in vitro for inhibitory activity against Herpes Simplex Virus type 2 ribonucleotide reductase
[3] = The compound was tested in vitro for inhibitory activity against Herpes Simplex Virus type 2 ribonucleotide reductase; design: species or system Human alphaherpesvirus 2

Row | SMILES | IC50 [1] | Relative potency (Human alphaherpesvirus 2) | IC50 [2] | IC50 [3]
1 | CC(C)C[C@H](NC(=O)[C@H](CC(=O)O)NC(=O)[C@H](CC(N)=O)NC(=O)[C@@H](NC(=O)[C@@H](NC(=O)[C@H](Cc1ccc(O)cc1)NCc1ccccc1)C(C)C)C(C)C)C(=O)O (H-[NBnTyr]VVNDL-OH) | 30 µM | 5 | 6 µM | 
2 | CC(C)C[C@H](NC(=O)[C@H](CC(=O)O)NC(=O)[C@H](CC(N)=O)NC(=O)[C@@H](NC(=O)[C@@H](NC(=O)Cc1ccc2ccccc2c1)C(C)C)C(C)C)C(=O)O | 30 µM | 6 | 5 µM | 
3 | CC(C)C[C@H](NC(=O)[C@H](CC(=O)O)NC(=O)[C@H](CC(=O)N(C)C)NC(=O)[C@@H](NC(=O)[C@@H](NC(=O)[C@@H](N)Cc1ccc(O)cc1)C(C)C)C(C)C)C(=O)O (H-YVVD(NMe2)DL-OH) | 27 µM | 90 |  | 0.3 µM
4 | CC(C)[C@H](NC(=O)C(Cc1ccccc1)Cc1ccccc1)C(=O)N[C@H](C(=O)N[C@@H](CC(=O)N(C)C)C(=O)N[C@@H](CC(=O)O)C(=O)N[C@@H](CC(C)(C)C)C(=O)O)C(C)C (Dibenzylacetyl-VVD(NMe2)D[tBuAla]-OH) | 21 µM | 70 |  | 0.3 µM
5 | CC(C)C[C@H](NC(=O)[C@H](CC(=O)O)NC(=O)[C@H](CC(=O)N(C)C)NC(=O)[C@@H](NC(=O)[C@@H](NC(=O)[C@@H](N)CC(=O)O)C(C)C)C(C)C)C(=O)O (H-DVVD(NMe2)DL-OH) | 9.5 µM | 63 |  | 0.15 µM
6 | CC(C)[C@H](NC(=O)C(Cc1ccccc1)Cc1ccccc1)C(=O)N[C@H](C(=O)N[C@@H](CC(=O)NCc1ccccc1)C(=O)N[C@@H](CC(=O)O)C(=O)N[C@@H](CC(C)(C)C)C(=O)O)C(C)C (Dibenzylacetyl-VVD(NHBn)D[tBuAla]-OH) | 10 µM | 50 |  | 0.2 µM
7 | CC(C)C[C@H](NC(=O)[C@H](CC(=O)O)NC(=O)[C@H](CC(=O)N1CCCC1)NC(=O)[C@@H](NC(=O)[C@@H](NC(=O)[C@@H](N)Cc1ccc(O)cc1)C(C)C)C(C)C)C(=O)O (H-YVVD(Pyrrolidide)DL-OH) | 32 µM | 32 |  | 1 µM
8 | CC(C)C[C@H](NC(=O)[C@H](CC(=O)O)NC(=O)[C@H](CC(N)=O)NC(=O)[C@@H](NC(=O)[C@@H](NC(=O)[C@H](Cc1ccc(O)cc1)NCc1cccc(Oc2ccccc2)c1)C(C)C)C(C)C)C(=O)O (H-[X1]VVNDL-OH) | 40 µM | 3.3 |  | 12 µM
9 | CC(C)C[C@H](NC(=O)[C@H](CC(=O)O)NC(=O)[C@H](CC(N)=O)NC(=O)[C@@H](NC(=O)[C@@H](NC(=O)C(Cc1ccccc1)Cc1ccc(O)cc1)C(C)C)C(C)C)C(=O)O (stereo in doubt; form 1) | 9.5 µM |  | 0.45 µM | 
10 | CC(C)[C@H](NC(=O)[C@@H](NC(=O)[C@@H](N)Cc1ccc(O)cc1)C(C)C)C(=O)N[C@@H](CC(=O)N(C)C)C(=O)N[C@@H](CC(=O)O)C(=O)N[C@@H](CC(C)(C)C)C(=O)O (H-YVVD(NMe2)D[tBuAla]-OH) | 22 µM | 110 |  | 0.2 µM
11 | CC(C)C[C@](C)(NC(=O)[C@H](CC(=O)O)NC(=O)[C@H](CC(N)=O)NC(=O)[C@@H](NC(=O)[C@@H](NC(=O)[C@@H](N)Cc1ccc(O)cc1)C(C)C)C(C)C)C(=O)O (H-YVVND[αMeL]-OH) | 38 µM | 0.12 |  | 320 µM
